Results reported in article PMC7932537, “Quantitative profiling of protease specificity” (PLoS Computational Biology, 2021).

Tests used:
[1] = biological target: T1, MMP-2 (Homo sapiens, UniProt P08253); assay: K(obs) of individual phage substrates (set of 1369); format: biochemical; settings: MMP2
T1 sequence (P08253 110-660): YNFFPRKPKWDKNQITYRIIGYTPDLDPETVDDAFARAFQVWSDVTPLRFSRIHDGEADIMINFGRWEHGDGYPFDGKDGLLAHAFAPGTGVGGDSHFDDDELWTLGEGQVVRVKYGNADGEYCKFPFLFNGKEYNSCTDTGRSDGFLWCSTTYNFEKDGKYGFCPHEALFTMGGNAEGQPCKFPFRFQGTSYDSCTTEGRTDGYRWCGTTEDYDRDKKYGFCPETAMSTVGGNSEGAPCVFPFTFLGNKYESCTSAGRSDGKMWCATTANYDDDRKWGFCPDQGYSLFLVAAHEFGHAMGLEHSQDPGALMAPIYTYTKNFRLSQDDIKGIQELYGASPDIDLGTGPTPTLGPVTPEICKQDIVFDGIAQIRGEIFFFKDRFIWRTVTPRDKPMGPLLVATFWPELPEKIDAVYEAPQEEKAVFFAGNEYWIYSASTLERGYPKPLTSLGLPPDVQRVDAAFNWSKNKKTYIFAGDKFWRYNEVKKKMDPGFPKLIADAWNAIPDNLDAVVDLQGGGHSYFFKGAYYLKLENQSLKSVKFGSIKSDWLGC

[2] = biological target: MMP-9 (Homo sapiens, UniProt P14780); assay: as above; format: biochemical; settings: MMP9
Chain of MMP-9 (P14780 94-707): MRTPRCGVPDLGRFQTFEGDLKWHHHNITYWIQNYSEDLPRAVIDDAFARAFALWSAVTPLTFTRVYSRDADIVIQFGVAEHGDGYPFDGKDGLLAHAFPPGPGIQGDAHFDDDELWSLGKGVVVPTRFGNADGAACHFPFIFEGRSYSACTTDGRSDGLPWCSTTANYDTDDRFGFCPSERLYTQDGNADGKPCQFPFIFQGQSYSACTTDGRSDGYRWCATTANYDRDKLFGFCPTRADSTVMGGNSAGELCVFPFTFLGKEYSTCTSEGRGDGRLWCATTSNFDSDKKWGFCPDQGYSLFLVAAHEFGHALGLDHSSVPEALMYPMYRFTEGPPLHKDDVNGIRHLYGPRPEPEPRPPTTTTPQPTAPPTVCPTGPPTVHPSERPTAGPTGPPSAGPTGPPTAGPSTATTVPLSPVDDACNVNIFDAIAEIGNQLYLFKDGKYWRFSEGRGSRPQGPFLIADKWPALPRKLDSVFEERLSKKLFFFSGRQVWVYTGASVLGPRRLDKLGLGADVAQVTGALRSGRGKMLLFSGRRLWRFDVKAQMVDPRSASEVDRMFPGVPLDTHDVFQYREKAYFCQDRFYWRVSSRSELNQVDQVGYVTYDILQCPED

[3] = system: MMP-2; assay: Substrate phage display with NGS: relative probability (RP) of P3-P1' tetramer clusters; format: biochemical, human; settings: MMP2;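 note: ratio of tetramer probability after protease selection to that in naive phage library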
[4] = individual phage substrate of the set of 1369 peptides, cleavage position marked by '-'
[5] = individual phage substrate of the set of 1369 peptides, dash in the sequence marks the cleavage position
[6] = RP of the P3-P1' tetramer contained in the substrate
[7] = individual phage substrates, set of 1369 peptides, cleavage position marked by hyphen in sequence
[8] = individual phage substrates, set of 1369 peptides, hyphen in sequence marks cleavage position
[9] = RP of the P3-P1' tetramer contained in the substrate (substrate phage display with NGS)

Substance | Kobs [1, 4] [M⁻¹ s⁻¹] | Kobs [2, 5] [M⁻¹ s⁻¹] | Kobs [1, 7] [M⁻¹ s⁻¹] | Kobs [2, 8] [M⁻¹ s⁻¹] | relative probability (RP) [3, 6] | relative probability (RP) [3, 9]
GGPRS-LFTAS | 12792.1 | 12792.1 |  |  | 33.3704 | 
VMYGN-LTASG |  |  | 12792.1 | 619.843 |  | 24.0019
HLAYH-MTASG |  |  | 2476.66 | 6396.07 |  | 3.76
GSGAA-LTMPT |  |  | 836.403 | 84.609 |  | 15.7207
GRLAS-LTASG |  |  | 12792.1 | 0 |  | 31.1996
PRVEA-LTASG | 4205.91 | 231.616 |  |  | 10.756 | 
ISVNY-LTASG |  |  | 3637.04 | 323.705 |  | 8.427
GSAVG-LRTAS | 12792.1 | 5667.28 |  |  | 28.9998 | 
HNANY-LTASG |  |  | 1610.61 | 0 |  | 3.901
TSLAN-LTASG |  |  | 9740.44 | 0 |  | 34.4823
VVYRG-LTASG |  |  | 2761.81 | 2476.66 |  | 5.445
RTASH-LTASG | 8321.48 | 84.609 |  |  | 19.8208 | 
GSGQH-LRKST |  |  | 171.876 | 0 |  | 1.164
GNAIH-LQTAS | 1196.62 | 0 |  |  | 13.4941 | 
GSTRN-LITAS |  |  | 1870.4 | 990.764 |  | 12.3403
VSLAY-LTASG |  |  | 12792.1 | 113.394 |  | 25.3422
FMPSA-QTASG | 10866.7 | 9740.44 |  |  | 28.0379 | 
KWVSM-LTASG |  |  | 12792.1 | 1870.4 |  | 23.0821
GIPFF-MTTAS |  |  | 0 | 3079.62 |  | 3.509
ERVWA-ITASG | 1239.69 | 3438.54 |  |  | 3.219 | 
GVVRG-LSTAS | 9740.44 | 4613.14 |  |  | 29.092 | 
SGLRH-LSNTA |  |  | 386.839 | 762.325 |  | 22.7972
GKLAS-LRTAS |  |  | 10866.7 | 84.609 |  | 31.1996
IGALA-LTASG | 12792.1 | 12792.1 |  |  | 22.1184 | 
RLPVA-ITASG | 12792.1 | 12792.1 |  |  | 32.4892 | 
GRVYD-LKTAS |  |  | 585.336 | 2761.81 |  | 1.244
SGSHG-LRSTA | 1763.55 | 1154.21 |  |  | 0.2009 | 
PRLTH-LTASG |  |  | 1610.61 | 27.918 |  | 4.299
SGASH-MTLTA |  |  | 0 | 0 |  | 12.3873
LQSMN-LTASG |  |  | 0 | 1239.69 |  | 2.165

More lines, main results first:

Kobs [1, 4] [M⁻¹ s⁻¹] | Kobs [2, 5] [M⁻¹ s⁻¹] | Kobs [1, 7] [M⁻¹ s⁻¹] | Kobs [2, 8] [M⁻¹ s⁻¹] | Substance | relative probability (RP) [3, 6] | relative probability (RP) [3, 9]
0 | 0 |  |  | KFWFN-LTASG | 0 | 
12792.1 | 619.843 |  |  | HRWSA-LTASG | 25.8217 | 
5667.28 | 12792.1 |  |  | GTPMQ-LYTAS | 27.6586 | 
12792.1 | 12792.1 |  |  | SGVRA-IIATA | 26.2338 | 
 |  | 2916.17 | 1239.69 | GHARS-LKTAS |  | 17.186
 |  | 3253.29 | 84.609 | GSGAS-LQMLT |  | 9.538
 |  | 836.403 | 0 | SGISY-MRITA |  | 22.3091
 |  | 1513.13 | 6131.32 | GMPWS-VTASG |  | 0.3793
 |  | 12792.1 | 12792.1 | GLPYA-LYTAS |  | 33.2554
5667.28 | 12792.1 |  |  | RLPWS-LTASG | 28.5684 | 
 |  | 7386.83 | 12792.1 | SGPNY-IRATA |  | 6.689
 |  | 1112.44 | 386.839 | ISWLN-LTASG |  | 0.1218
 |  | 8941.32 | 0 | WRYSN-LTASG |  | 25.2832
12792.1 | 12792.1 |  |  | YYPRA-LTASG | 35.2345 | 
 |  | 4205.91 | 5889.62 | PQVWY-LTASG |  | 3.667
6396.07 | 6396.07 |  |  | DPWRA-LTASG | 22.4074 | 
 |  | 1154.21 | 0 | SMGSH-LTASG |  | 4.2785
9740.44 | 12792.1 |  |  | FVVRA-LTASG | 30.4312 | 
2097.28 | 951.362 |  |  | SGSRA-LTASG | 12.4506 | 
8941.32 | 7015.91 |  |  | ARPEF-LTASG | 12.0159 | 

Kobs [1, 4] [M⁻¹ s⁻¹] | Kobs [2, 5] [M⁻¹ s⁻¹] | Kobs [1, 7] [M⁻¹ s⁻¹] | Kobs [2, 8] [M⁻¹ s⁻¹] | Substance | relative probability (RP) [3, 6] | relative probability (RP) [3, 9]
142.481 | 1763.55 |  |  | GFPLM-YATAS | 17.2027 | 
12792.1 | 0 |  |  | WPHGS-LTASG | 19.9233 | 
12792.1 | 0 |  |  | DKLAS-LTASG | 31.1996 | 
12792.1 | 12792.1 |  |  | TSPVA-LTASG | 34.2983 | 
 |  | 0 | 0 | RLYMN-ITASG |  | 0
 |  | 12792.1 | 12792.1 | SGPVM-LRGTA |  | 25.0294
7386.83 | 1465.65 |  |  | AVANS-LTASG | 10.0738 | 
 |  | 4205.91 | 2409.72 | RYAQP-LTASG |  | 14.4283
7386.83 | 12792.1 |  |  | RPPLA-FTASG | 31.4142 | 
 |  | 5889.62 | 7815.03 | RAPSM-LTASG |  | 33.0235
 |  | 9740.44 | 8941.32 | GYPLH-LQTAS |  | 34.1843
5461.43 | 12792.1 |  |  | WMPLG-MTASG | 34.1118 | 
5461.43 | 0 |  |  | GFWSS-LRTAS | 16.6561 | 
 |  | 27.918 | 836.403 | SGVYS-LIKTA |  | 16.838
 |  | 1513.13 | 8321.48 | GGPFL-LKTAS |  | 9.085
 |  | 4205.91 | 4922.1 | VRAHS-LTASG |  | 21.0212
 |  | 5269.78 | 0 | GGYAN-LTTAS |  | 27.7486
 |  | 12792.1 | 12792.1 | GTPSA-LTTAS |  | 36.1873
12792.1 | 142.481 |  |  | GVYGA-LRTAS | 28.8499 | 
323.705 | 836.403 |  |  | SSVWH-ITASG | 1.931 | 
